In patent US20220402873A1, “NOVEL P62 LIGAND COMPOUND, AND COMPOSITION CONTAINING SAME FOR PREVENTING, AMELIORATING, OR TREATING PROTEINOPATHIES” (AUTOTAC INC., priority 2019, published 2022):

Legend:
Type in all cases: cell-based
p62 protein [1] = molecular target: T1, p62 protein (Homo sapiens, UniProt Q13501); assay: Oligomerization activity of p62 protein by immunoblotting; parameters: endogenous in cells; details: HEK293 cell line lysate treated with test compounds for 2 hours at room temperature
Description: In order to evaluate the oligomerization activity efficacy of p62 protein of the compounds (Examples 1-20), HEK293 cell line, which is human embryonic kidney-derived cell, was collected. As representative compounds of the present compounds, the compounds of Examples 1-20 (Example 1 (ATB10048), Example 2 (ATB10047), Example 3 (ATB10049), Example 4 (ATB10051), Example 5 (ATB10050), Example 6 (ATB10056), Example 7 (ATB10052), Example 8 (ATB10057), Example 9 (ATB10060), Example 10 (ATB10072), Example 11 (ATB10075), Example 12 (ATB10078), Example 13 (ATB10079), Example 14 (ATB10080), Example 15 (ATB10081), Example 16 (ATB10087), Example 17 (ATB10096), Example 18 (ATB10097), Example 19 (ATB10099) and Example 20 (ATB10100)) were selected, and in order to measure the activation and oligomerization of the p62 protein in cells according to the treatment with these selected representative compounds, each cell was dispensed into a 100 phi dish. The cells were collected after additional culture for 24 hours so that the cells were completely attached to the surface of the plate, and 100 ul of lysis buffer (20 mM Tris (pH 7.4), 150 mM NaCl, 1% Triton X-100, 2 mM NaF, 2 mM EDTA, 2 mM beta-glycerophosphate, 5 mM sodium orthovanadate, 1 mM PMSF, leupeptin, aproteinin) was injected to each sample, and the cells were lysed. Based on the measured total protein concentration, each sample was treated with the test compounds for 2 hours at room temperature, and then a sample buffer was added and reacted at 95° C. for 10 minutes. 25 ul was taken from the samples after the reaction was completed and dispensed into each well of an acrylamide gel, and immunoblotting was performed.

p62 protein [2] = molecular target: T1, p62 protein; assay: Activity of p62 protein and delivery of ubiquitinated substrate proteins to autophagy by immunofluorescence staining (p62, FK2) and confocal microscopy; parameters: endogenous in cells; host or cells: HeLa; details: Hela cell line, 1 uM, 6 hours
Protocol: Immunofluorescence staining was performed using p62 and FK2 as markers to determine the level of the activity of p62 protein of the compounds (Examples 1-20). In order to determine the level of p62 activity and autophagy activity by the novel p62 ligand and its isomers in the cultured cells, the Hela cell line derived from cervical cancer patients was treated with a novel p62 ligand compound (Example 1 (ATB10048), Example 2 (ATB10047), Example 3 (ATB10049), Example 5 (ATB10050), Example 4 (ATB10051), Example 7 (ATB10052), Example 6 (ATB10056), Example 8 (ATB10057), Example 9 (ATB10060), Example 10 (ATB10072), Example 11 (ATB10075), Example 12 (ATB10078), […], Example 14 (ATB10080), Example 15 (ATB10081), Example 16 (ATB10087)), Example 17 (ATB0096), Example 18 (ATB10097), Example 19 (ATB10099) and Example 20 (ATB10100)) and cultured, and then the level of puncta expression and location of FK2, which was a marker of the protein to be delivered to and degraded in the autophagy through the mediation of the intracellular ubiquitinated p62, and the puncta local co-existence with p62 were observed.
For immunofluorescence staining, a cover glass was placed on a 24-well plate, cells were dispensed and cultured for 24 hours, and then 1 uM of the novel p62 ligand according to the present invention was treated. After culturing for an additional 6 hours for the action of the compound, the medium was removed, and the cells were fixed using formaldehyde at room temperature. In order to prevent non-specific staining, the cells were reacted with a blocking solution at room temperature for 1 hour, and then the LC3 antibody diluted at a certain ratio was treated with a blocking solution and then reacted at room temperature for 1 hour. After the antibody-treated cells were washed 3 times with PBS, the goat-derived secondary antibody was diluted at a certain ratio using the blocking solution, and then reacted at room temperature for 30 minutes. After further washing with PBS three times, and DAPI staining was performed for intracellular nuclear staining. Then, the level of expression of p62 or FK2, the level of intracellular puncta formation, and the level of coexistence in the cells were observed by a confocal microscope.

p62 protein [3] = molecular target: T1, p62 protein; assay: Activity of p62 protein and delivery to autophagosome by immunofluorescence staining (p62, LC3-GFP) and confocal microscopy; parameters: endogenous in cells; host or cells: HeLa; details: Hela-LC3-GFP cell line, 5 uM, 24 hours
Protocol: Immunofluorescence staining was performed using p62 and FK2 marker to determine the level of activity of p62 protein of the compounds (Examples 1-20). In order to determine the level of p62 activity and autophagy activity by the novel p62 ligand and its isomers in cultured cells, Hela-LC3-GFP cell line derived from cervical cancer patients was treated with the novel p62 ligand compounds (Example 2 (ATB10047), Example 3 (ATB10049), Example 4 (ATB10051), Example 6 (ATB10056), Example 9 (ATB10060), Example 12 (ATB10078), Example 16 (ATB10087) and Example (ATB10097)) and cultured. Then, the level of puncta expression and location of LC3-GFP, which is an essential autophagosome marker for macroautophagy, and the puncta local co-existence of p62 were observed.
For immunofluorescence staining, a cover glass was placed on a 24-well plate, cells were dispensed and cultured for 24 hours, and then treated with 5 uM of the novel p62 ligand according to the present invention. The cells were further cultured for an additional 24 hours for the action of the compound, the medium was removed, and the cells were fixed using formaldehyde at room temperature. In order to prevent non-specific staining, the cells were reacted with a blocking solution at room temperature for 1 hour, and then the LC3 antibody diluted at a certain ratio was treated with the blocking solution and then reacted at room temperature for 1 hour. After the antibody-treated cells were washed 3 times with PBS, the goat-derived secondary antibody was diluted at a certain ratio using the blocking solution, and then reacted at room temperature for 30 minutes. The cells were washed again with PBS three times and subjected to DAPI staining for intracellular nuclear staining, and then the level of expression of p62 or LC3, intracellular puncta formation, and intracellular coexistence level were observed by a confocal microscope.

T1 sequence (Q13501 whole entry): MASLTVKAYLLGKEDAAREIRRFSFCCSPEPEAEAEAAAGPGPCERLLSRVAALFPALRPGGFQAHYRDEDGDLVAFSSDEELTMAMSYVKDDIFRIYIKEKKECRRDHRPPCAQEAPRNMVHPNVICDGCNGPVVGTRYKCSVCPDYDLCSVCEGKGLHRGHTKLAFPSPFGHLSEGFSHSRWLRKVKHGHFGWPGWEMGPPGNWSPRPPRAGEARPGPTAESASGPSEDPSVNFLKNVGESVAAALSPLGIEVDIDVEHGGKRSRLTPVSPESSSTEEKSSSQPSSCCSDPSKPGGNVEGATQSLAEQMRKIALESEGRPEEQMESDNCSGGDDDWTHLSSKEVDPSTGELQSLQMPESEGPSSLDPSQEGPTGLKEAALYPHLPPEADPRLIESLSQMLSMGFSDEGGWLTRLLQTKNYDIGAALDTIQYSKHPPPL

Row | SMILES | p62 protein oligomerization activity (immunoblot, FIGS. 2a to 2d) (p62 protein [1]) | delivery of ubiquitinated proteins marked with FK2 to autophagosome mediated by p62 (FIGS. 3a to 3d) (p62 protein [2]) | targeting of activated, oligomerized p62 protein to the autophagosome (FIG. 4) (p62 protein [3])
1 | OCCNC[C@@H](O)CNc1cccc(OCc2ccccc2)n1 [Example 15, (R)-1-((6-(benzyloxy)pyridin-2-yl)amino)-3-((2-hydroxyethyl)amino)propan-2-ol] | increasing the p62 protein oligomerization activity | show the efficacy of delivering the proteins to be delivered to and degraded by autophagosome | 
2 | NC(=O)NCc1ccc(OCc2ccccc2)cn1 [Example 6, 1-((5-(benzyloxy)pyridin-2-yl)methyl)urea] | increasing the p62 protein oligomerization activity | show the efficacy of delivering the proteins to be delivered to and degraded by autophagosome | show the efficacy of targeting them to the autophagosome
3 | O=C(CO)NCc1ccc(CCc2ccccc2)o1 [Example 19, 2-hydroxy-N-((5-phenethylfuran-2-yl)methyl) acetamide] | increasing the p62 protein oligomerization activity | show the efficacy of delivering the proteins to be delivered to and degraded by autophagosome | 
4 | O=C(O)CNCc1ccc(OCCc2ccccc2)s1 [Example 20, ((5-phenethoxythiophen-2-yl)methyl)glycine] | increasing the p62 protein oligomerization activity | show the efficacy of delivering the proteins to be delivered to and degraded by autophagosome | 
5 | OCCNCc1cc(OCc2ccccc2)ccn1 [Example 5, 2-(((4-(benzyloxy)pyridin-2-yl)methyl)amino)ethan-1-ol] | increasing the p62 protein oligomerization activity | show the efficacy of delivering the proteins to be delivered to and degraded by autophagosome | 
6 | O=C(CO)NCc1cccc(OCc2ccccc2)n1 [Example 1] | increasing the p62 protein oligomerization activity | show the efficacy of delivering the proteins to be delivered to and degraded by autophagosome | 
7 | OCCNC[C@@H](O)COc1cncc(OCc2ccccc2)c1 [Example 13, (R)-1-((5-(benzyloxy)pyridin-3-yl)oxy)-3-((2-hydroxyethyl)amino)propan-2-ol] | increasing the p62 protein oligomerization activity | show the efficacy of delivering the proteins to be delivered to and degraded by autophagosome | 
8 | O=C(CO)NCc1cc(OCc2ccccc2)c(OCc2ccccc2)cn1 [Example 7, N-((4,5-bis(benzyloxy)pyridin-2-yl)methyl)-2-hydroxyacetamide] | increasing the p62 protein oligomerization activity | show the efficacy of delivering the proteins to be delivered to and degraded by autophagosome | 
9 | OCCNC[C@@H](O)COc1cccc(NCc2ccccc2)n1 [Example 14, (R)-1-((6-(benzylamino)pyridin-2-yl)oxy)-3-((2-hydroxyethyl)amino)propan-2-ol] | increasing the p62 protein oligomerization activity | show the efficacy of delivering the proteins to be delivered to and degraded by autophagosome | 
10 | OCCNCc1ccc(OCc2ccccc2)s1 [Example 17, 2-(((5-(benzyloxy)thiophen-2-yl)methyl)amino)ethan-1-ol] | increasing the p62 protein oligomerization activity | show the efficacy of delivering the proteins to be delivered to and degraded by autophagosome | 
11 | COc1ccc(OC[C@H](O)CNCCO)nc1OCc1ccccc1 [Example 11, (R)-1-((6-(benzyloxy)-5-methoxypyridin-2-yl)oxy)-3-((2-hydroxyethyl)amino)propan-2-ol] | increasing the p62 protein oligomerization activity | show the efficacy of delivering the proteins to be delivered to and degraded by autophagosome | 
12 | OCCNCc1cc(OCc2ccccc2)c(OCc2ccccc2)cn1 [Example 8, 2-(((4,5-bis(benzyloxy)pyridin-2-yl)methyl)amino)ethan-1-ol] | increasing the p62 protein oligomerization activity | show the efficacy of delivering the proteins to be delivered to and degraded by autophagosome | 
13 | OCCNC[C@@H](O)COc1cc(OCc2ccccc2)ccn1 [Example 10, (R)-1-((4-(benzyloxy)pyridin-2-yl)oxy)-3-((2-hydroxyethyl)amino)propan-2-ol] | increasing the p62 protein oligomerization activity | show the efficacy of delivering the proteins to be delivered to and degraded by autophagosome | 
